# Reference: patent US7250515B2, “Thiazolinone 3,4-disubstituted quinolines” (Hoffman-La Roche Inc., priority 2004, dated 2007)
# pKi: −log10 of the molar value. Where a name gives a salt, the structure may show the parent alone.
# Molecular target: T1, recombinant human CDK1/Cyclin B complex (Homo sapiens, UniProt P06493)
# T1 construct: made in house; host or cells: High Five insect cells (baculovirus); Rb substrate made in E. coli M15
# Test: CDK1/Cyclin B kinase assay (FlashPlate or HTRF), Rb protein substrate
# Type: biochemical
# Details: Ki=IC50/(1+[S]/Km)
# Procedure: To determine inhibition of CDK1 activity, either FlashPlate™ (NEN™-Life Science Products) assay or HTRF assay was performed. Both types of kinase assays were carried out using recombinant human CDK1/Cyclin B complex. GST-cyclinB (GST-cycB) and CDK1cDNA clones in baculovirus vectors were provided by Dr. W. Harper at the Baylor College of Medicine, Houston, Tex. Proteins were co-expressed in High Five™ insect cells and the complex was purified on glutathione Sepharose resin (Pharmacia, Piscataway, N.J.) as previously described (Harper, J. W. et al. Cell 1993, 75, 805-816). A 6×-Histidine tagged truncated form of retinoblastoma (Rb) protein (amino acid 386-928) was used as the substrate for the CDK1/Cyclin B assay (the expression plasmid was provided by Dr. Veronica Sullivan, Department of Molecular Virology, Roche Research Centre, Welwyn Garden City, United Kingdom). The Rb protein is a natural substrate for phosphorylation by CDK1 (see Herwig and Strauss Eur. J. Biochem. Vol. 246 (1997) pp. 581-601 and the references cited therein). The expression of the 62 Kd protein was under the control of an IPTG inducible promoter in an M15 E. coli strain. Cells were lysed by sonication and purification was carried out by binding lysates at pH 8.0 to a Ni-chelated agarose column pretreated with 1 mM imidazole. The resin was then washed several times with incrementally decreasing pH buffers to pH 6.0, and eluted with 500 mM imidazole. Eluted protein was dialyzed against 20 mM HEPES pH 7.5, 30% glycerol, 200 mM NaCl, and 1 mM DTT. Purified Rb fusion protein stocks were quantitated for protein concentration, aliquoted, and stored at −70° C.
# For the FlashPlate kinase assay, 96-well FlashPlates were coated with Rb protein at 10 μg/ml, using 100 μl per well. Plates were incubated at 4° C. overnight or at room temperature for 3 hours on a shaker. To control for nonspecific phosphorylation, one row of wells was coated with 100 μl/well coating buffer (20 mM HEPES, 0.2 M NaCl). Plates were then washed twice with wash buffer (0.01% Tween 20 in phosphate-buffered saline). Compounds to be tested (“test compounds”) were added to the wells at 5× final concentration. Reactions were initiated by immediate addition of 40 μl reaction mix (25 mM HEPES, 20 mM MgCl2, 0.002% Tween 20, 2 mM DTT, 1 μM ATP, 4 nM 33P-ATP) and a sufficient amount of enzyme to give counts that were at least 10-fold above background. Plates were incubated at room temperature on a shaker for 30 minutes. Plates were washed four times with the wash buffer, sealed, and counted on the TopCount scintillation counter (Packard Instrument Co., Downers Grove, Ill.]. The percent inhibition of Rb phosphorylation, which is a measure of the inhibition of CDK activity, was determined according to the following formula:
# [formula] where “test compound” refers to the average counts per minute of the test duplicates, “nonspecific” refers to the average counts per minute when no CDK1/Cyclin B, etc., was added, and “total” refers to the average counts per minute when no compound was added. The IC50 value is the concentration of test compound that reduces by 50% the protein-kinase induced incorporation of the radiolabel under the test conditions described. The value of the inhibitor constant Ki is calculated by the following: Ki=IC50/(1+[S]/Km), where [S] is the ATP concentration and Km is Michaelis constant.
# The Homofeneous Time Resolved Fluorescence (HTRF) kinase assay was carried out in 96-well polypropylene plates (BD Biosciences, Bedford, Mass.). Test compounds were first dissolved in DMSO, and then diluted in kinase assay buffer 1 (25 mM HEPES, pH7.0, 8 mM MgCl2, 1.5 mM DTT, and 162 μM ATP) with DMSO concentration at 15%. The CDK1/Cyclin B enzyme was diluted in kinase assay buffer 2 (25 mM HEPES, pH 7.0, 8 mM MgCl2, 0.003% Tween 20, 0.045% BSA, 1.5 mM DTT, and 0.675 μM Rb protein). […]
# T1 sequence (P06493 whole entry): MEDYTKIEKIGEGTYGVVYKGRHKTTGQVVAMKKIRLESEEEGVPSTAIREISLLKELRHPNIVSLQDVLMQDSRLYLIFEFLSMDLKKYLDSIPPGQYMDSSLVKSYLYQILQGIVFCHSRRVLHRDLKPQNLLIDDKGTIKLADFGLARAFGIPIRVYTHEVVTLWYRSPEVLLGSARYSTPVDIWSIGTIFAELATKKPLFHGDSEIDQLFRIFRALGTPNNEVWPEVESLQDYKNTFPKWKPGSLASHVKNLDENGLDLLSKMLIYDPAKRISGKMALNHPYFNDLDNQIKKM
# T1 sequence (P14635 whole entry partner): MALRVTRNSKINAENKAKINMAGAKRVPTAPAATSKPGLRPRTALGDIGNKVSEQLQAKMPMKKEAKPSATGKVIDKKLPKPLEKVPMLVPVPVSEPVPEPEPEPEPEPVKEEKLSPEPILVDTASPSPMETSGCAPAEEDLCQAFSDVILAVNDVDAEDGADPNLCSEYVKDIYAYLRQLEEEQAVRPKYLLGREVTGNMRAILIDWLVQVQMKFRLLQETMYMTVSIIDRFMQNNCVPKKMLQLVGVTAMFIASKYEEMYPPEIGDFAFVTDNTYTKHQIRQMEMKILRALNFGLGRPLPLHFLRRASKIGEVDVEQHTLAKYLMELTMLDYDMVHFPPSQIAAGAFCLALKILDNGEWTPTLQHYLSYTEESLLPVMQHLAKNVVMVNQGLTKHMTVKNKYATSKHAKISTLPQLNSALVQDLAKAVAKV
row,SMILES,pKi
1,"CC(C)Sc1c(C#N)cnc2ccc(/C=C3\SC(N)=NC3=O)cc12 [Example 40, 6-[2-amino-4-oxo-4H-thiazol-(5Z)-ylidenemethyl]-4-isopropylsulfanyl-quinoline-3-carbonitrile]",7.80
2,"N#Cc1cnc2ccc(/C=C3\SC(N)=NC3=O)cc2c1SCCCO [Example 50, 6-[2-Amino-4-oxo-4H-thiazol-(5Z)-ylidenemethyl]-4-(3-hydroxy-propylsulfanyl)-quinoline-3-carbonitrile]",7.19
3,"CCOc1c(C#N)cnc2ccc(/C=C3\SC(NCCn4ccnc4)=NC3=O)cc12 [Example 20, 4-Ethoxy-6-[2-(2-imidazol-1-yl-ethylamino)-4-oxo-4H-thiazol-(5Z)-ylidenemethyl]-quinoline-3-carbonitrile]",6.64
4,"COC(=O)c1cnc2ccc(/C=C3\SC(N[C@@H](CO)c4ccccc4)=NC3=O)cc2c1OC [Example 5, 6-[2-((R)-2-Hydroxy-1-phenyl-ethylamino)-4-oxo-4H-thiazol-(5Z)-ylidenemethyl]-4-methoxy-quinoline-3-carboxylic acid methyl ester]",6.75
5,"COc1c(C(=O)N(C)C)cnc2ccc(/C=C3\SC(N[C@@H]4C[C@H]4c4ccccc4)=NC3=O)cc12 [Example 10, 4-Methoxy-6-[4-oxo-2-((1R,2S)-2-phenyl-cyclopropylamino)-4H-thiazol-(5Z)-ylidenemethyl]-quinoline-3-carboxylic acid dimethylamide]",6.02
6,"CCCCOc1c(C#N)cnc2ccc(/C=C3\SC(N)=NC3=O)cc12 [Example 80, 6-[2-Amino-4-oxo-4H-thiazol-(5Z)-ylidenemethyl]-4-butoxy-quinoline-3-carbonitrile]",9.00
7,"CCOc1c(C#N)cnc2ccc(/C=C3\SC(NCCOCCOC)=NC3=O)cc12 [Example 25, 6-[2-[2-(2-methoxy-ethoxy)-ethylamino]-4-oxo-4H-thiazol-(5Z)-ylidenemethyl]-4-ethoxy-quinoline-3-carbonitrile]",6.00
8,"N#Cc1cnc2ccc(/C=C3\SC(N)=NC3=O)cc2c1OC1CCNCC1 [Example 30, 6-[2-Amino-4-oxo-4H-thiazol-(5Z)-ylidenemethyl]-4-(piperidin-4-yloxy)-quinoline-3-carbonitrile hydrochloride]",6.74
9,"CC(C)Oc1c(C#N)cnc2ccc(/C=C3\SC(NN)=NC3=O)cc12 [Example 60, 6-[2-Hydrazino-4-oxo-4H-thiazol-(5Z)-ylidenemethyl]-4-isopropoxy-quinoline-3-carbonitrile hydrochloride salt]",7.55
10,"CC(C)(C)COc1c(C#N)cnc2ccc(/C=C3\SC(NC4CC4)=NC3=O)cc12 [Example 70, 6-[2-Cyclopropylamino-4-oxo-4H-thiazol-(5Z)-ylidenemethyl]-4-(2,2-dimethyl-propoxy)-quinoline-3-carbonitrile]",8.22
11,"CCOc1c(C#N)cnc2ccc(/C=C3\SC(N)=NC3=O)cc12 [Example 15, 6-[2-Amino-4-oxo-4H-thiazol-(5Z)-ylidenemethyl]-4-ethoxy-quinoline-3-carbonitrile]",8.10
